# Reference: publication PMC10548524, “Evolutionary adaptation from hydrolytic to oxygenolytic catalysis at the α/β-hydrolase fold” (Chemical Science, 2023)
# Tests used:
# [1] = molecular target: T1, HOD (1-H-3-hydroxy-4-oxoquinaldine 2,4-dioxygenase) (Paenarthrobacter nitroguajacolicus, UniProt O31266, H251A); assay: X-ray crystallography, normoxic and O2-pressurised (soak-and-freeze); type: binding; details: 2.0 Å (normoxic) and 2.1 Å (hyperoxic, 40 bar O2, 2 min); active site, non-reactive substrate analogue
# T1 construct: crystallised protein; construct, tags and host only in supplement
# [2] = molecular target: T2, HOD (1-H-3-hydroxy-4-oxoquinaldine 2,4-dioxygenase) (Paenarthrobacter nitroguajacolicus, UniProt O31266, S101A); assay: as above; type: binding; details: 2.0 Å; with water (normoxic) or O2 (40 bar, 2 min) at the R-site; active site
# T2 construct: crystallised protein; construct, tags and host only in supplement
smiles,measurement,setting,value
"Cc1cc(=O)c2ccccc2[nH]1 [MQO, 2-methyl-quinolin-4(1H)-one]","X-ray crystallography, normoxic and O2-pressurised (soak-and-freeze)",[1],MQO binds in the active site similarly to QND
same,"X-ray crystallography, normoxic and O2-pressurised (soak-and-freeze)",[2],we then solved the structure of HOD^S101A in a complex with MQO
